± gives the standard deviation of the averaged measurements.
Columns and labels:
Test in all cases: relative viability vs DMSO control (72 h) (fraction); higher = more viable cells
VA-ES-BJ = system: VA-ES-BJ
Method in brief: (§1)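 After seeding at densities set for 80–90% confluence in 384-well plates, sarcoma cell lines waited 24 h before 2.5 µl of serially diluted compound was added. Source plates held 10 mM down to 0.0002 mM. Plates were incubated 72 h at 37 °C with 5% CO2, with 0.1% DMSO vehicle and a 5 µM positive control, and relative viability was taken from ATPLite as percent growth averaged over up to triplicate wells, with 1 set as full and 0 as none.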

SW982 = system: SW982
Method in brief: as §1

SW684 = system: SW684
Method in brief: as §1

G401 = system: G401
Method in brief: as §1

A204 = system: A204
Method in brief: as §1

KHOS-NP = system: KHOS-NP
Method in brief: as §1

SK-ES-1 = system: SK-ES-1
Method in brief: as §1

HS729 = system: HS729
Method in brief: as §1

RD-ES = system: RD-ES
Method in brief: as §1

SK-LMS-1 = system: SK-LMS-1
Method in brief: as §1

HT1080 = system: HT1080
Method in brief: as §1

SW872 = system: SW872
Method in brief: as §1

Which results are given for C[C@@H]1CN(C(=O)c2ccc(NC(=O)c3cc(O[C@H](C)c4c(Cl)ccc(F)c4Cl)c(N)nn3)cc2)C[C@H](C)N1 [Ensartinib]?
relative viability (VA-ES-BJ; 0.00017 µM): 1.05 ± 0.033; relative viability (VA-ES-BJ; 0.00051 µM): 1.02 ± 0.034; relative viability (VA-ES-BJ; 0.00152 µM): 1.03 ± 0.042; relative viability (VA-ES-BJ; 0.00457 µM): 1.03 ± 0.062; relative viability (VA-ES-BJ; 0.01372 µM): 1.06 ± 0.061; relative viability (VA-ES-BJ; 0.04115 µM): 1.05 ± 0.031; relative viability (VA-ES-BJ; 0.1235 µM): 1.02 ± 0.054; relative viability (VA-ES-BJ; 0.3704 µM): 0.855 ± 0.031; relative viability (VA-ES-BJ; 1.111 µM): 0.662 ± 0.042; relative viability (VA-ES-BJ; 3.333 µM): 0.489 ± 0.011; relative viability (VA-ES-BJ; 10 µM): 0.362 ± 0.017; relative viability (SW982; 0.00017 µM): 0.966 ± 0.046; relative viability (SW982; 0.00051 µM): 0.95947 ± 0.00092; relative viability (SW982; 0.00152 µM): 0.986 ± 0.043; relative viability (SW982; 0.00457 µM): 0.973 ± 0.025; relative viability (SW982; 0.01372 µM): 0.97 ± 0.019; relative viability (SW982; 0.04115 µM): 0.965 ± 0.052; relative viability (SW982; 0.1235 µM): 0.982 ± 0.017; relative viability (SW982; 0.3704 µM): 0.855 ± 0.039; relative viability (SW982; 1.111 µM): 0.513 ± 0.021; relative viability (SW982; 3.333 µM): 0.206 ± 0.012; relative viability (SW982; 10 µM): 0.009967 ± 5.8e-05; relative viability (SW684; 0.00017 µM): 1.05 ± 0.025; relative viability (SW684; 0.00051 µM): 1.02 ± 0.013; relative viability (SW684; 0.00152 µM): 1.08 ± 0.042; relative viability (SW684; 0.00457 µM): 1.06 ± 0.035; relative viability (SW684; 0.01372 µM): 1.06 ± 0.017; relative viability (SW684; 0.04115 µM): 1.07 ± 0.052; relative viability (SW684; 0.1235 µM): 1.06 ± 0.034; relative viability (SW684; 0.3704 µM): 1.05 ± 0.023; relative viability (SW684; 1.111 µM): 0.971 ± 0.044; relative viability (SW684; 3.333 µM): 0.829 ± 0.018; relative viability (SW684; 10 µM): 0.113 ± 0.0034; relative viability (G401; 0.00017 µM): 0.954 ± 0.022; relative viability (G401; 0.00051 µM): 0.983 ± 0.024; relative viability (G401; 0.00152 µM): 0.98 ± 0.025; relative viability (G401; 0.00457 µM): 0.9873 ± 0.0051; relative viability (G401; 0.01372 µM): 1.01 ± 0.039; relative viability (G401; 0.04115 µM): 1.019 ± 0.0048; relative viability (G401; 0.1235 µM): 1.05 ± 0.055; relative viability (G401; 0.3704 µM): 0.946 ± 0.018; relative viability (G401; 1.111 µM): 0.771 ± 0.026; relative viability (G401; 3.333 µM): 0.49 ± 0.018; relative viability (G401; 10 µM): 0.0293 ± 0.0073; relative viability (A204; 0.00017 µM): 1.069 ± 0.008; relative viability (A204; 0.00051 µM): 1.07 ± 0.011; relative viability (A204; 0.00152 µM): 1.06 ± 0.036; relative viability (A204; 0.00457 µM): 1.05 ± 0.0042; relative viability (A204; 0.01372 µM): 1.05 ± 0.029; relative viability (A204; 0.04115 µM): 1.05 ± 0.055; relative viability (A204; 0.1235 µM): 1.04 ± 0.053; relative viability (A204; 0.3704 µM): 1.06 ± 0.056; relative viability (A204; 1.111 µM): 0.98 ± 0.029; relative viability (A204; 3.333 µM): 0.806 ± 0.053; relative viability (A204; 10 µM): 0.326 ± 0.053; relative viability (KHOS-NP; 0.00017 µM): 1.02 ± 0.018; relative viability (KHOS-NP; 0.00051 µM): 1.04 ± 0.05; relative viability (KHOS-NP; 0.00152 µM): 1.03 ± 0.021; relative viability (KHOS-NP; 0.00457 µM): 1.03 ± 0.029; relative viability (KHOS-NP; 0.01372 µM): 1.04 ± 0.014; relative viability (KHOS-NP; 0.04115 µM): 1.03 ± 0.017; relative viability (KHOS-NP; 0.1235 µM): 1.03 ± 0.04; relative viability (KHOS-NP; 0.3704 µM): 1.03 ± 0.03; relative viability (KHOS-NP; 1.111 µM): 1.02 ± 0.013; relative viability (KHOS-NP; 3.333 µM): 0.987 ± 0.025; relative viability (KHOS-NP; 10 µM): 0.422 ± 0.069; relative viability (SK-ES-1; 0.00017 µM): 0.934 ± 0.081; relative viability (SK-ES-1; 0.00051 µM): 0.966 ± 0.045; relative viability (SK-ES-1; 0.00152 µM): 0.987 ± 0.027; relative viability (SK-ES-1; 0.00457 µM): 1 ± 0.04; relative viability (SK-ES-1; 0.01372 µM): 0.974 ± 0.012; relative viability (SK-ES-1; 0.04115 µM): 0.972 ± 0.043; relative viability (SK-ES-1; 0.1235 µM): 0.97 ± 0.068; relative viability (SK-ES-1; 0.3704 µM): 0.857 ± 0.072; relative viability (SK-ES-1; 1.111 µM): 0.457 ± 0.038; relative viability (SK-ES-1; 3.333 µM): 0.0368 ± 0.0014; relative viability (SK-ES-1; 10 µM): 0.00643 ± 0.0012; relative viability (HS729; 0.00017 µM): 0.96 ± 0.073; relative viability (HS729; 0.00051 µM): 1.02 ± 0.058; relative viability (HS729; 0.00152 µM): 1.03 ± 0.084; relative viability (HS729; 0.00457 µM): 1.01 ± 0.098; relative viability (HS729; 0.01372 µM): 0.998 ± 0.096; relative viability (HS729; 0.04115 µM): 0.986 ± 0.051; relative viability (HS729; 0.1235 µM): 0.955 ± 0.028; relative viability (HS729; 0.3704 µM): 0.888 ± 0.035; relative viability (HS729; 1.111 µM): 0.764 ± 0.059; relative viability (HS729; 3.333 µM): 0.594 ± 0.023; relative viability (HS729; 10 µM): 0.207 ± 0.025; relative viability (RD-ES; 0.00017 µM): 0.97 ± 0.035; relative viability (RD-ES; 0.00051 µM): 0.951 ± 0.032; relative viability (RD-ES; 0.00152 µM): 0.989 ± 0.042; relative viability (RD-ES; 0.00457 µM): 0.963 ± 0.025; relative viability (RD-ES; 0.01372 µM): 0.985 ± 0.038; relative viability (RD-ES; 0.04115 µM): 0.974 ± 0.039; relative viability (RD-ES; 0.1235 µM): 0.975 ± 0.029; relative viability (RD-ES; 0.3704 µM): 0.826 ± 0.051; relative viability (RD-ES; 1.111 µM): 0.567 ± 0.031; relative viability (RD-ES; 3.333 µM): 0.0894 ± 0.0084; relative viability (RD-ES; 10 µM): 0.00693 ± 0.00035; relative viability (SK-LMS-1; 0.00017 µM): 0.995 ± 0.018; relative viability (SK-LMS-1; 0.00051 µM): 0.9982 ± 0.0072; relative viability (SK-LMS-1; 0.00152 µM): 1.01 ± 0.022; relative viability (SK-LMS-1; 0.00457 µM): 1.04 ± 0.039; relative viability (SK-LMS-1; 0.01372 µM): 1.03 ± 0.0051; relative viability (SK-LMS-1; 0.04115 µM): 1.02 ± 0.017; relative viability (SK-LMS-1; 0.1235 µM): 1.01 ± 0.061; relative viability (SK-LMS-1; 0.3704 µM): 0.83 ± 0.024; relative viability (SK-LMS-1; 1.111 µM): 0.656 ± 0.031; relative viability (SK-LMS-1; 3.333 µM): 0.53 ± 0.0076; relative viability (SK-LMS-1; 10 µM): 0.0598 ± 0.0024; relative viability (HT1080; 0.00017 µM): 1.02 ± 0.027; relative viability (HT1080; 0.00051 µM): 1 ± 0.06; relative viability (HT1080; 0.00152 µM): 0.993 ± 0.012; relative viability (HT1080; 0.00457 µM): 1.03 ± 0.019; relative viability (HT1080; 0.01372 µM): 1.03 ± 0.028; relative viability (HT1080; 0.04115 µM): 0.9998 ± 0.0066; relative viability (HT1080; 0.1235 µM): 1.04 ± 0.029; relative viability (HT1080; 0.3704 µM): 1.04 ± 0.034; relative viability (HT1080; 1.111 µM): 1.02 ± 0.045; relative viability (HT1080; 3.333 µM): 0.837 ± 0.0086; relative viability (HT1080; 10 µM): 0.0183 ± 0.0025; relative viability (SW872; 0.00017 µM): 1.02 ± 0.028; relative viability (SW872; 0.00051 µM): 1.03 ± 0.026; relative viability (SW872; 0.00152 µM): 1.04 ± 0.033; relative viability (SW872; 0.00457 µM): 1.05 ± 0.02; relative viability (SW872; 0.01372 µM): 1.06 ± 0.016; relative viability (SW872; 0.04115 µM): 1.04 ± 0.028; relative viability (SW872; 0.1235 µM): 1.03 ± 0.037; relative viability (SW872; 0.3704 µM): 1.01 ± 0.037; relative viability (SW872; 1.111 µM): 0.835 ± 0.0097; relative viability (SW872; 3.333 µM): 0.583 ± 0.016; relative viability (SW872; 10 µM): 0.188 ± 0.011
